Experimental data reported in patent US11560582B2, “Fusion moieties and microbial hosts for protein production” (priority 2018, dated 2023).

How the values were obtained:
[1] = test system: A. wodanis strain 01/09/401 (11); assay: Antibiotic susceptibility testing on LB plates; type: cell-based, Aliivibrio wodanis; settings: 12° C. for 2 days
Protocol: (§1) Antibiotic susceptibility testing was done by streaking A. wodanis cells onto LB plates supplemented with 2.5% NaCl and one of the following antibiotics: Chloramphenicol (2 μg/mL, Tetracycline (10 μg/mL), Carbenicillin (100 or 200 μg/mL) or Kanamycin (50 or 100 μg/mL). A. wodanis was regarded as susceptible (score=0) if no growth was detected, as intermediate susceptible (score=0.5) if poor growth was detected, or as resistant (score=1) if good growth was detected. The tested concentrations of antibiotics were similar to the recommended working concentrations for E. coli, except Chloramphenicol that was tested at 2 μg/mL (instead of 25 μg/mL). If the test scored as “resistant”, then the test was redone using 2× of the recommended concentration. All A. wodanis strains were streaked onto same agar plate and grown at 12° C. for 2 days.

[2] = test system: A. wodanis strain 02/09/382 (8); assay: Antibiotic susceptibility testing on LB plates; type: cell-based, Aliivibrio wodanis; settings: 12° C. for 2 days
Protocol: as §1

[3] = test system: A. wodanis strain 02/09/569 (7); assay: Antibiotic susceptibility testing on LB plates; type: cell-based, Aliivibrio wodanis; settings: 12° C. for 2 days
Protocol: as §1

[4] = test system: A. wodanis strain 03/09/160 (37); assay: Antibiotic susceptibility testing on LB plates; type: cell-based, Aliivibrio wodanis; settings: 12° C. for 2 days
Protocol: as §1

[5] = test system: A. wodanis strain 04/60/17347 (35); assay: Antibiotic susceptibility testing on LB plates; type: cell-based, Aliivibrio wodanis; settings: 12° C. for 2 days
Protocol: as §1

[6] = test system: A. wodanis strain 06/09/170 (27); assay: Antibiotic susceptibility testing on LB plates; type: cell-based, Aliivibrio wodanis; settings: 12° C. for 2 days
Protocol: as §1

[7] = test system: A. wodanis strain 06/09/178 (29); assay: Antibiotic susceptibility testing on LB plates; type: cell-based, Aliivibrio wodanis; settings: 12° C. for 2 days
Protocol: as §1

[8] = test system: A. wodanis strain 88/09/441 (12) (T); assay: Antibiotic susceptibility testing on LB plates; type: cell-based, Aliivibrio wodanis; settings: 12° C. for 2 days
Protocol: as §1

[9] = test system: A. wodanis strain 89/09/5532 (1); assay: Antibiotic susceptibility testing on LB plates; type: cell-based, Aliivibrio wodanis; settings: 12° C. for 2 days
Protocol: as §1

[10] = test system: A. wodanis strain 90/09/325 (5); assay: Antibiotic susceptibility testing on LB plates; type: cell-based, Aliivibrio wodanis; settings: 12° C. for 2 days
Protocol: as §1

[11] = test system: A. wodanis strain K7F1 150913; type: cell-based, Aliivibrio wodanis; settings: 12° C. for 2 days
Protocol: as §1

A. wodanis strains = assay: Antibiotic resistance test, summary for all strains; type: cell-based, Aliivibrio wodanis; settings: the twelve strains used in this study
Protocol: Next, we tested for resistance to antibiotics, four of which are commonly used in biotechnological applications, namely carbenicillin, kanamycin, tetracycline and chloramphenicol.
as §1

molecular beacon probe = assay: DNA polymerase molecular beacon activity assay; type: biochemical; settings: affinity purified enzyme expressed in A. wodanis 03/09/160; increasing enzyme
Excerpt: Activity assay for AsPoIII is based on a molecular beacon probe (5″-GGCCCGT^Dabcyl[…]^FAMACGGGCCGTCAAGTT CATG […]-3′ (SEQ ID NO:46)) (modified from Summerer, 2008). The molecular beacon probe consists of a 23mer loop that is connected by a GC-rich 8mer stem region (the 8-mer stem region consists of two 8 nucleotide sequences-sequences are indicated in italics) and a 43mer extension. The fluorophores Dabcyl and FAM are attached to the indicated “T” nucleotides. Due to the loop formation the fluorophores Dabcyl and FAM are in close proximity and thus quenched. Upon extension by the DNA polymerase I of the primer (5″-GTGGTGCGAAATTTCTGAC-3′ (SEQ ID NO:47)) that is annealed to the molecular beacon template the stem is opened and the increase in distance of the two fluorophores is measured by the restoration of FAM fluorescence (excitation 485 nm, emission 518 nm). Assay was monitored in 50 μL reactions containing 0.2 μM substrate (molecular beacon) mixed with 0.2 mM dNTP in 1× reaction buffer (250 mM Tris-HCl, pH 8.5, 250 mM, KCl, 25 mM MgCl2) and 1×DB (1 mg/ml BSA, 5 mM DTT, 10% glycerol). The mixture was first incubated at 25° C. for 5 min, and the reaction was started by adding the purified enzyme. Increase in fluorescence was measured (excitation 485 nm, emission 518 nm) for 15 min with 10 sec intervals (total of 91 reads). […]

[12] = test system: ssDNA "molecular beacon" substrate; assay: Exonuclease I molecular beacon activity assay; type: biochemical; settings: affinity purified enzyme expressed in A. wodanis 03/09/160; increasing enzyme
Protocol: The two enzyme activity assays used in this work are both based on so-called “molecular beacons”. Each “molecular beacon” consists of a hairpin shaped DNA oligonucleotide with an internally quenched fluorophore (in this case FAM). TAMRA was used as the FAM quencher. Enzyme activity of affinity purified AsExoI and MvExoI were tested in 50 μL reactions containing the following: 0.2 μM ssDNA “molecular beacon” substrate (5′-FAM-CGCCATCGGAGGTTC-TAMRA-3′ (SEQ ID NO:45)), 50 mM Tris pH 8.5, 30 mM MgCl2, 1 mM DTT, 0.2 mg/ml BSA, 2% glycerol and 8.5 nM enzyme (Exonuclease I). The reaction was carried out in a black 96-well fluorescence assay plate (Corning®), and increase in FAM fluorescence (excitation at 485 nm, emission at 518 nm) was measured as relative fluorescence units (RFU) at appropriate time intervals for 40 min.

CC1(C)S[C@@H]2[C@H](NC(=O)C(C(=O)O)c3ccccc3)C(=O)N2[C@H]1C(=O)O (stereo partly shown) [CAR, Carbenicillin]
Antibiotics resistance CAR 100 μg/mL ([1]; 100 μg/mL): 1 | Antibiotics resistance CAR 200 μg/mL ([1]; 200 μg/mL): 1 | Antibiotics resistance CAR 100 μg/mL ([2]; 100 μg/mL): 1 | Antibiotics resistance CAR 200 μg/mL ([2]; 200 μg/mL): 1 | Antibiotics resistance CAR 100 μg/mL ([3]; 100 μg/mL): 1 | Antibiotics resistance CAR 200 μg/mL ([3]; 200 μg/mL): 1 | Antibiotics resistance CAR 100 μg/mL ([4]; 100 μg/mL): 1 | Antibiotics resistance CAR 200 μg/mL ([4]; 200 μg/mL): 1 | Antibiotics resistance CAR 100 μg/mL ([5]; 100 μg/mL): 1 | Antibiotics resistance CAR 200 μg/mL ([5]; 200 μg/mL): 1 | Antibiotics resistance CAR 100 μg/mL ([6]; 100 μg/mL): 1 | Antibiotics resistance CAR 200 μg/mL ([6]; 200 μg/mL): 1 | Antibiotics resistance CAR 100 μg/mL ([7]; 100 μg/mL): 1 | Antibiotics resistance CAR 200 μg/mL ([7]; 200 μg/mL): 1 | Antibiotics resistance CAR 100 μg/mL ([8]; 100 μg/mL): 0.5 | Antibiotics resistance CAR 200 μg/mL ([8]; 200 μg/mL): 0.5 | Antibiotics resistance CAR 100 μg/mL ([9]; 100 μg/mL): 1 | Antibiotics resistance CAR 200 μg/mL ([9]; 200 μg/mL): 1 | Antibiotics resistance CAR 100 μg/mL ([10]; 100 μg/mL): 1 | Antibiotics resistance CAR 200 μg/mL ([10]; 200 μg/mL): 1 | Antibiotics resistance CAR 100 μg/mL ([11]; 100 μg/mL): 1 | Antibiotics resistance CAR 200 μg/mL ([11]; 200 μg/mL): 1 | sensitivity / resistance to antibiotics (A. wodanis strains): resistance

B1: AsPoIII: DNA polymerase II from Aliivibrio salmonicida (SEQ ID NO: 38), His-tagged, expressed in A. wodanis (protein, listed as Aliivibrio salmonicida)
chain: LNSPHCGFLLTRQNKDIRDHSLVDLWVKCDDHIAHLLIENELAVIFFLKERQAEYESILTNAHIHYSIKSTSLHTFQHQPVFGLYFSSTQQKRVATALFEDHQLPTFEGDIRLADRYLMERFICGGMAFVGTPRQRKGYVEYRDVKIKSAEMTPEFSVVSLDVECSEKGILYSVALHCERDTRIIMVGPEETSDLPIEWVENEKALLLALESWFQTFDPDIIIGWNVINFDFNLLIKRAKWHNLAFRLGRGNSSLYFRESNKNRQQGFLSFPGRVVLDGIDALKTATYHFSSWSLESVSQELLNEGKSIHDPSDRMGEINRMYREDKCALAKYNLQDCVLVTRIFELTHLLEFVIERTKLTGIELDRVGGSVAAFTNLYLPRLHRAGYIAPNLESENWIASPGGYVMSSKPGLYESVLVLDFKSLYPSIIKTFRIDPLGLVEGLKLESGIDDGQAIEGFRGGRFHRTKHFLPNLIETLWSARDVAKKNNEKAFSQAIKIIMNSFYGVLGSSGCRFFDHRLASSITMRGHEIMKTTRELIESQGYEVIYGDTDSTFVTLGESMPSDEADKIGKQLVDHINQWWTAHLESEYAIDSALEIEYETHYRIFLMPTIRGSEMGSKKRYAGLIRKGDKEEIIFKGLETVRTDWTPLSQEFQKVLFDKVFHQQAVEEYVREYVDKTKSGEFDNKLIYRKRLRRQLDEYQKNVPPHVKAARIADTQNQKLGKPLMYQQGGWIEYIITTAGPEPIEYRQNPIDYDHYVEKQLKPIAEGILPFVNLSFTELSASQLGLF
modifications: 6xHis tag
DNA polymerase activity (FAM fluorescence, RFU) (molecular beacon probe): dose-dependent

B2: AsExoI: Exonuclease I from Aliivibrio salmonicida (SEQ ID NO: 37), His-tagged, expressed in A. wodanis (protein, listed as Aliivibrio salmonicida)
chain: MPQDNAPSFFFFDYETWGTSPSLDRPCQFAGVRTDEDFNIIGEPLVIYCRPPIDYLPSPEACLITGITPQMAVSKGLSEPEFIAQIHNELSKPNTCSLGYNNIRFDDEVSRYTLYRNFFEPYGWSWQNGNSRWDLLDVMRAVYALRPEGIEWPKDEEGKPSFRLEKLSQANGIEHENAHDAMADVIATIELAKVVKKAQPKMFNYLLSMRHKKKAATLIDIIEMTPLMHVSGMFGVDRGNISWIVPVAWHPTNNNAVITIDLALDPAVFLELDAEQLHQRMYTKRSELGPDELPVPVKLVHLNKCPILAPAKTLTAENAIALNVDREACLRNLKVIRENPEIRQKLIDLYNIEPGYEKSSNVDTLLYDGFFSHADKTAIDMIRQSTPEQLIDFEPNVSDPRIKPLLFRYRARNFPHTLNESEQLRWQAHLQDYFETHMSDYETRFESLYLESEGNEKKTAILRAVYNYVQQLVS
modifications: 6xHis tag
exonuclease activity (FAM fluorescence, RFU) [12]: dose-dependent
